In ChEMBL document CHEMBL3259558, “Identification of amides derived from 1H-pyrazolo[3,4-b]pyridine-5-carboxylic acid as potent inhibitors of human nicotinamide phosphoribosyltransferase (NAMPT)” (Bioorg Med Chem Lett, 2013):
≈ marks a conversion by molar mass, not a printed value. Calls of active or inactive are those of the source. The calls are words filed in the database; no cut-off is given here.

What was measured:
[1] = Inhibition of C-terminal His-6-tagged dog NAMPT expressed in Escherichia coli (DE3)-RIL cells after 30 mins by mass spectrometry-based analysis; design: species or system Canis lupus familiaris
[2] = Antiproliferative activity against mouse KPR cells assessed as cell viability after 96 hrs by CyQuant staining-based assay; type: functional
[3] = Antiproliferative activity against dog DH82 cells assessed as cell viability after 96 hrs by CyQuant staining-based assay; type: functional; details: Canis lupus familiaris, DH82, 96 h
[4] = test system: Mus musculus; assay: Toxicity in NCR nude mouse xenografted with human A2780 cells assessed as decrease in body weight at 100 mg/kg, po qd measured after 5 days; type: organism-based; design: dose 100 mg/kg, route oral; details: in vivo, 120 h
[5] = Half life in NCR nude mouse at 5 mg/kg, iv; type: ADME, organism-based; design: dose 5 mg/kg, route intravenous; details: in vivo
[6] = Cytotoxicity against rhesus monkey RF/6A cells assessed as cell viability after 96 hrs by CyQuant staining-based assay; details: Macaca mulatta
[7] = test system: A2780; assay: Antiproliferative activity against human A2780 cells assessed as cell viability after 72 hrs by SRB assay in presence of nitotinamide mononucleotide; type: functional, cell-based
[8] = Antiproliferative activity against mouse KPP cells assessed as cell viability after 96 hrs by CyQuant staining-based assay; type: functional
[9] = test system: Tumour; assay: Reduction of NAD level in tumor of NCR nude mouse xenografted with human A2780 cells at 100 mg/kg, po qd measured after day-5 dose for 1 to 24 hrs relative to vehicle-treated control; type: functional, organism-based; design: dose 100 mg/kg
[10] = Clearance in NCR nude mouse at 5 mg/kg, iv; type: ADME, organism-based; design: dose 5 mg/kg, route intravenous; details: in vivo
[11] = Antiproliferative activity against human Calu6 cells assessed as cell viability after 96 hrs by CyQuant staining-based assay; type: functional; details: Calu-6, 96 h
[12] = Cmax in NCR nude mouse at 100 mg/kg, po; type: ADME, organism-based; design: dose 100 mg/kg, route oral; details: in vivo
[13] = Antiproliferative activity against human MIAPaCa2 cells assessed as cell viability after 96 hrs by CyQuant staining-based assay; type: functional; details: MIA PaCa-2, 96 h
[14] = Half life in NCR nude mouse at 100 mg/kg, po; type: ADME, organism-based; design: dose 100 mg/kg, route oral; details: in vivo
[15] = Fraction unbound in mouse plasma at 5 uM by LC-MS/MS analysis; type: ADME, cell-free
[16] = Cytotoxicity against African green monkey COS1 cells assessed as cell viability after 96 hrs by CyQuant staining-based assay; details: Chlorocebus aethiops, COS-1, 96 h
[17] = biological target: Nicotinamide phosphoribosyltransferase (Rattus norvegicus, UniProt Q80Z29); assay: Inhibition of rat NAMPT after 30 mins by mass spectrometry-based analysis
[18] = Dissociation constant, pKa of the compound; type: physicochemical
[19] = Volume of distribution at steady state in NCR nude mouse at 5 mg/kg, iv; type: ADME, organism-based; design: dose 5 mg/kg, route intravenous; details: in vivo, read-out: Vdss
[20] = Inhibition of C-terminal His-6-tagged cynomolgus monkey NAMPT expressed in Escherichia coli (DE3)-RIL cells after 30 mins by mass spectrometry-based analysis; design: species or system Macaca fascicularis
[21] = test system: A2780; assay: Antitumor activity against human A2780 cells xenografted in NCR nude mouse assessed as tumor regression at 100 mg/kg, po qd measured for 5 to 15 days; type: functional, organism-based; design: dose 100 mg/kg
[22] = Ratio of drug level in retina to plasma of Sprague-Dawley rat at 30 mg/kg, po qd for 2 days measured 1 hr after last dose
[23] = Antiproliferative activity against dog D17 cells assessed as cell viability after 96 hrs by CyQuant staining-based assay; type: functional; details: Canis lupus familiaris, D17, 96 h
[24] = Drug uptake in Sprague-Dawley rat retina at 30 mg/kg, po single dose measured 6.5 hrs after dose
[25] = test system: PC-3; assay: Cellular uptake in human PC3 cells at 200 nM; type: ADME, cell-based; details: pc-3, 0.2 µM
[26] = Antiproliferative activity against human HT1080 cells assessed as cell viability after 96 hrs by CyQuant staining-based assay; type: functional; details: HT-1080, 96 h
[27] = Antiproliferative activity against dog A72 cells assessed as cell viability after 96 hrs by CyQuant staining-based assay; type: functional; details: Canis lupus familiaris, A-72, 96 h
[28] = test system: HCT-116; assay: Antiproliferative activity against human HCT116 cells assessed as cell viability after 96 hrs by CyQuant staining-based assay; type: functional; details: HCT-116, 96 h
[29] = Ratio of drug level in retina to plasma of Sprague-Dawley rat at 30 mg/kg, po qd for 2 days measured 6.5 hrs after last dose
[30] = biological target: T1, Nicotinamide phosphoribosyltransferase (Mus musculus, UniProt Q99KQ4); assay: Inhibition of mouse NAMPT after 30 mins by mass spectrometry-based analysis
[31] = Octanol-PBS buffer distribution coefficient, log D of the compound at pH 7.4 by shake flask method; type: physicochemical
[32] = Cytotoxicity against African green monkey COS7 cells assessed as cell viability after 96 hrs by CyQuant staining-based assay; details: Chlorocebus aethiops, COS-7, 96 h
[33] = test system: PC-3; assay: Cellular uptake in human PC3 cells at 1000 nM; type: ADME, cell-based; details: pc-3, 1 µM
[34] = Cellular uptake in mouse KPP cells at 200 nM; type: ADME, cell-based; details: 0.2 µM
[35] = Cellular uptake in mouse KPP cells at 1000 nM; type: ADME, cell-based; details: 1 µM
[36] = Tmax in NCR nude mouse at 100 mg/kg, po; type: ADME, organism-based; design: dose 100 mg/kg, route oral; details: in vivo
[37] = Apparent permeability from apical to basolateral side in MDCK cells at 10 uM by LC-MS/MS analysis; type: ADME, cell-based, Canis lupus familiaris; details: dog
[38] = biological target: T1, Nicotinamide phosphoribosyltransferase; assay: Inhibition of NAMPT in mouse cells assessed as reduction in NAD level after 48 hrs by mass spectrometry; type: cell-based
[39] = Aqueous solubility of the compound in PBS at pH 7.2 by LC/CLND analysis; type: physicochemical
[40] = test system: A2780; assay: Antiproliferative activity against human A2780 cells assessed as cell viability after 72 hrs by SRB assay; type: functional, cell-based; details: A2780, 72 h
[41] = Antiproliferative activity against mouse B16F10 cells assessed as cell viability after 96 hrs by CyQuant staining-based assay; type: functional; details: B16-F10, 96 h
[42] = test system: PC-3; assay: Antiproliferative activity against human PC3 cells assessed as cell viability after 96 hrs by CyQuant staining-based assay; type: functional; details: PC-3, 96 h
[43] = Drug uptake in Sprague-Dawley rat retina at 30 mg/kg, po single dose measured 1 hr after dose

T1 sequence (Q99KQ4 whole entry): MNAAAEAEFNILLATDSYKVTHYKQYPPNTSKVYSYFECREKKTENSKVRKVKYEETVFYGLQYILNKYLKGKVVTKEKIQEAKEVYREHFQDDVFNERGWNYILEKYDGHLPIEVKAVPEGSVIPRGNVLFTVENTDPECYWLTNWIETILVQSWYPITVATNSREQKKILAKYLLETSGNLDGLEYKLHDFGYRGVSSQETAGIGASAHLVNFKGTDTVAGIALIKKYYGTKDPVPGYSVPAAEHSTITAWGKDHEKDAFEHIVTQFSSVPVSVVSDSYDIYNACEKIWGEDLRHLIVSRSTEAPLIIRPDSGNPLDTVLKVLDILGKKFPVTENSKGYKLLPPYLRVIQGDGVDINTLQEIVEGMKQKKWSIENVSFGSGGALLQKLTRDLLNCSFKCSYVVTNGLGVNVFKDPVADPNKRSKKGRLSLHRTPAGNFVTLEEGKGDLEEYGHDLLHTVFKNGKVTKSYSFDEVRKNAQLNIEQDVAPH
Chain of Nicotinamide phosphoribosyltransferase (Rattus norvegicus, UniProt Q80Z29) (Q80Z29 whole entry): as the sequence (Q99KQ4 whole entry) above, with T335S, N439T, I484M counted along it

Q: For `O=C(NCc1ccc(S(=O)(=O)c2cccc(C(F)(F)F)c2)cc1)c1cnc2[nH]ncc2c1`, which IC50 [1] is on record?
A: 22 nM

Q: What about the IC50 [2] of the same compound?
A: > 1000 nM

Q: What about the IC50 [3] of the same compound?
A: 41 nM

Q: What about the Activity [4] of the same compound?
A: Toxic

Q: What about the half-life [5] of the same compound?
A: 2.6 h

Q: And the IC50 [6]?
A: 386 nM

Q: And the inhibition [7]?
A: inactive

Q: And the IC50 [8]?
A: 775 nM

Q: What about the Activity [9] of the same compound?
A: Active

Q: And the clearance [10]?
A: 3.3 mL/min/kg

Q: And the IC50 [11]?
A: 21 nM

Q: What about the Cmax [12] of the same compound?
A: 53000 nM

Q: And the IC50 [13]?
A: 30 nM

Q: And the half-life [14]?
A: 3.4 h

Q: What about the fraction unbound at 5 µM [15] of the same compound?
A: 0.013

Q: What about the IC50 [16] of the same compound?
A: 501 nM

Q: And the IC50 [17]?
A: 35 nM

Q: What about the pKa [18] of the same compound?
A: < 2

Q: What about the Vd [19] of the same compound?
A: 0.45 L/kg

Q: What about the IC50 [20] of the same compound?
A: 73 nM

Q: And the Activity [21]?
A: Active

Q: And the Kp at 1 h [22]?
A: 0.071

Q: What about the IC50 [23] of the same compound?
A: 98 nM

Q: What about the concentration at 6.5 h [24] of the same compound?
A: 680 nM

Q: What about the Drug uptake [25] of the same compound?
A: 10 nM

Q: What about the IC50 [26] of the same compound?
A: 9 nM

Q: What about the IC50 [27] of the same compound?
A: 23 nM

Q: And the IC50 [28]?
A: 8 nM

Q: And the Kp at 6.5 h [29]?
A: 0.093

Q: What about the IC50 [30] of the same compound?
A: 59 nM

Q: And the logD [31]?
A: 3.4

Q: What about the IC50 [32] of the same compound?
A: 863 nM

Q: And the Drug uptake [33]?
A: 54 nM

Q: What about the Drug uptake [34] of the same compound?
A: 12 nM

Q: What about the Drug uptake [35] of the same compound?
A: 74 nM

Q: And the Tmax [36]?
A: 0.25 h

Q: And the Papp A→B at 10 µM [37]?
A: 11 ×10⁻⁶ cm/s

Q: And the EC50 [38]?
A: 70 nM

Q: And the solubility [39]?
A: 1.4 µM (≈ 0.645 µg/mL)

Q: And the IC50 [40]?
A: 4.3 nM

Q: And the IC50 [41]?
A: > 1000 nM

Q: And the IC50 [42]?
A: 9 nM

Q: And the concentration at 1 h [43]?
A: 940 nM
